Values belong to the compound of their own block, whether it stands above or below them.
What was measured:
Assay type in all cases: in vitro ADME
[1] = Transdermal delivery of carbidopa through full thickness pig skin ex vivo, Franz Cell delivery system; settings: for Transdermal delivery of Carbidopa through full thickness pig skin, ex vivo: 24 h, 8.85% carbidopa-arginine salt
Procedure: The effects of octanol, limonene and/or lauroglycol on the transdermal delivery of carbidopa through full thickness pig skin are evaluated using the Franz Cell delivery system. Formulations containing carbidopa, octanol, limonene, and/or lauroglycol are prepared (formulations 1-8). Samples are collected from the receive cell at 24 and 41 hours after application of the formulation to the skin. The amount of carbidopa compounds in the receiver cell fluid is determined using a spectrophotometer and/or UV-HPLC at 280 nm. […] In Table 1 and FIG. 1, the formulations each contain 14.5% (by weight) carbidopa-arginine salt. In Table 2 the formulations each contain 8.85% (by weight) carbidopa-arginine salt.

[2] = Transdermal delivery of opipramol through full thickness pig skin ex vivo
Procedure: FIG. 7 depicts the effect of organic acids on the transdermal delivery of opipramol through full thickness pig skin. Formulations containing opipramol, various organic acids (succinic acid, citric acid, lactic acid, ascorbic acid, malic acid, or tartaric acid), octanol, lauroglycol, and/or Klucel® are prepared. Samples are collected from the receive cell at 22 and 46 hours after application of the formulations to the skin. The amount of opipramol compounds in the receiver cell fluid is determined using a spectrophotometer and/or UV-HPLC at 280 nm. FIG. 8 depicts the effects of octanol, limonene and/or lauroglycol on the transdermal delivery of opipramol (5% by weight) through full thickness pig skin.

[3] = as above; remark: listed apart in the source
[4] = inclusion of Klucel hydroxypropyl cellulose in formulation containing octanol and limonene (FIG. 4)

Transdermal delivery of Carbidopa through full thickness pig skin, ex vivo ([1]; Octanol 0, Limonene 1.5, Oleic Acid 0): 1.0 mg/cm^2 | Transdermal delivery of Carbidopa through full thickness pig skin, ex vivo ([1]; Octanol 0, Limonene 1.5, Oleic Acid 2): 1.0 mg/cm^2 | Transdermal delivery of Carbidopa through full thickness pig skin, ex vivo ([1]; Octanol 4, Limonene 1.5, Oleic Acid 0): 6.4 mg/cm^2 | Effect of the combination of octanol and lauroglycol on delivery of carbidopa through pig skin ([1]; FIG. 1, depends on the octanol:lauroglycol ratio): enhances | Effect of the combination of octanol and limonene on delivery of carbidopa through pig skin ([1]; FIGS. 1 and 2, Tables 1 and 2): additive and/or synergistic effect | Effect on lag time of carbidopa penetration through the skin ([1]; addition of lactic acid to formulation containing octanol and limonene (FIG. 3)): reduces | Effect on lag time of carbidopa penetration [1, 4]: increases | Effect on rate of carbidopa penetration through the skin [1, 4]: reduces | Enhancement of penetration of the drug through the skin ([1]; on increasing the amount of carbidopa in the formulation by 50% (FIG. 5)): 25%
SMILES: C[C@@](Cc1ccc(O)c(O)c1)(NN)C(=O)O [Carbidopa, carbidopa]

Effect of addition of organic acids on transdermal delivery of opipramol ([2]; FIG. 7): significantly increases | Effect of lactic acid and citric acid on opipramol penetration through the skin ([2]; FIG. 7): minimal effect | Effect of tartaric acid on opipramol delivery relative to other organic acids ([2]; FIG. 7, followed by ascorbic, succinic and malic acid): highest enhancing effect | Effect of the combination of octanol and limonene on delivery of opipramol through pig skin ([2]; FIG. 8, opipramol 5% by weight): additive and/or synergistic effect | Effect of glutamic acid on opipramol penetration through the skin ([3]; FIG. 9): significantly increases | Effect of increasing concentration of Klucel on penetration of opipramol through the skin ([3]; FIG. 10): reduces | Effect of tartaric acid on opipramol penetration through the skin as compared to opipramol base ([3]; FIG. 11): significantly increases | Tartaric acid compared with hydrochloric acid, opipramol penetration ([3]; FIG. 11): significantly superior | Transdermal delivery of opipramol at 5% opipramol in the formulation ([3]; FIG. 12, higher concentration): may be inhibited | Rate of opipramol penetration ([3]; glutamic acid formulation, in the presence of 1% limonene (FIG. 9)): reduced | Lag time of opipramol penetration through the skin ([3]; glutamic acid formulation, in the presence of 5% water (FIG. 9)): shortened
SMILES: OCCN1CCN(CCCN2c3ccccc3C=Cc3ccccc32)CC1 [opipramol]
Effect of lauroglycol in the formulation on opipramol delivery ([2]; FIG. 8, Table 3): reduces the additive and/or synergistic effect | Opipramol delivery of formulation containing 2.5% (wt) opipramol ([3]; FIG. 12, compared with 1% formulation): delivers more opipramol than the 1% formulation
